# In PubChem BioAssay AID1996:
# Conditions: buffer; pH 7.4; 200.0 µM
row,Structure (SMILES),solubility kinetic [µg/mL]
1,C=CCn1c(NCc2ccc(OC)cc2)nc2ccccc21,33.7
2,C=CCN(c1ccccc1)S(=O)(=O)c1c(C)[nH]c(=O)[nH]c1=O,> 48.2
3,CC1(C)CC2(C)OC(=N)C1(C#N)C2(C#N)C#N (centres undefined),34
4,Cc1ccc(NC(=O)CCN2CCOCC2)cc1C,> 39.4
5,Cc1cc(C)cc(NC(=O)NCC(O)COc2ccc([N+](=O)[O-])cc2)c1 (centres undefined),6.1
6,CCCCN(CC)C(=O)c1cc2c(=O)n3cccc(C)c3nc2s1,44.5
7,Cc1ccccc1Nc1nc(N)nc(CCl)n1,> 37.5
8,CCc1ccccc1N(CC(=O)N1CCCCCC1)S(C)(=O)=O,43.5
9,COc1ccc(CCC(=O)NCCc2nc3ccccc3[nH]2)cc1,8.8
10,C=C(C)[C@@H]1CC=C(CN2CCC(CCOC)(C(=O)OCC)CC2)CC1,38.7
11,CCn1c(=O)c([N+](=O)[O-])c(Cl)c2ccccc21,3.3
12,CN(C)S(=O)(=O)c1cccc(C(=O)OCC(=O)N2CCCC2=O)c1,> 53.2
13,CCOc1cc(C(=O)NCc2ccco2)cc(OCC)c1OCC,49.7
14,CC(=O)c1sc2nsc(SCCN3CCOCC3)c2c1N,> 51.5
15,Brc1cc2c(cc1-c1nc3ccccc3s1)OCO2,< 0.7
16,O=S(=O)([O-])CCC[N+]1(CC#Cc2ccccc2)CCCCC1,> 48.2
17,O=C(NCCCCO)c1ccc2c3c(cccc13)CC2,39.2
18,C=CCN1CC(C)/C(=N\O)CC1C (centres undefined),26.4
19,O=c1oc2ccccc2n1Cc1ccccc1F,4.2
20,Nc1cc(=O)[nH]c(SCC(=O)Nc2ccc(N3CCOCC3)cc2)n1,> 54.2

row,Structure (SMILES),solubility kinetic [µg/mL]
1,CCCC(=O)NC(c1ccccc1)c1c(O)ccc2ccccc12 (centres undefined),< 0.7
2,CCOC(=O)N1CCC(NC(=O)c2cccs2)CC1,37.8
3,CCOc1ccc(N2CC(C(=O)N3CCCc4ccccc43)CC2=O)cc1 (centres undefined),47.2
4,C=CCn1c(O)c(C(C)=NC(C)c2ccccc2)c(=O)[nH]c1=O (centres undefined),> 47
5,Cc1cnc(C(=O)OCC(=O)NC(=O)c2ccccc2)cn1,> 44.9
6,C=C(C)C(=O)Nc1cccnc1Oc1ccc(F)cc1,> 40.8
7,CCCC(=O)NC(=S)Nc1ccc(CN2CCOCC2)cc1,> 48.2
8,Cc1c(NC(=O)C(C)Oc2cccc(F)c2)c(=O)n(-c2ccccc2)n1C (centres undefined),> 55.4
9,COP(=O)(NS(=O)(=O)c1ccccc1)OC,33.9
10,CC(CCc1ccccc1)NC(=O)COC(=O)c1cccn1C (centres undefined),> 47.2
11,COc1ccc(CCC(C)NCCc2ccc(Cl)cc2Cl)cc1 (centres undefined),21.4
12,O=C(Nc1ccccc1N1CCOCC1)c1ccc(Cl)nc1,> 47.7
13,CC(=O)O.O=C(NCC1CCCCN1)c1cc(OCC(F)(F)F)ccc1OCC(F)(F)F (centres undefined),> 71.2
14,CC(C)n1c(NCCO)nc2ccccc21,> 32.9
15,CCCCn1c(N)c(N(CC)C(=O)c2cccs2)c(=O)[nH]c1=O,10.1
16,CCc1ccc(NC(=S)NCC2CCCN2CC)cc1 (centres undefined),> 43.7
17,N#Cc1cccc(S(=O)(=O)NCCOc2ccccc2F)c1,> 48.1
18,COc1ccc(C2C3(C#N)C(N)=NC(OC)(OC)C23C#N)cc1 (centres undefined),> 46.8
19,Cc1nsc2nc3c(F)c(F)c(F)c(F)c3cc12,4.4
20,Cn1cccc1/C=N/NC(=O)CSc1nc2ccccc2[nH]1,> 47

row,Structure (SMILES),solubility kinetic [µg/mL]
1,Cc1ccc(C(=O)/C=C/c2ccc3ncccc3c2)cc1,1
2,COc1cccc(CNC(=O)Cn2ccc([N+](=O)[O-])n2)c1,> 43.5
3,O=C(Cc1ccccc1)Nc1nccs1,> 32.7
4,Cc1nn(C)cc1S(=O)(=O)Nc1cccc(Cl)c1,> 42.9
5,Cc1c(C(=O)NC2CCCCC2)oc2ccccc12,5.3
6,CC1(C)Cc2ccccc2C(/C(C#N)=N/O)=N1,> 34.1
7,Cc1ccccc1COC(=O)c1cc([N+](=O)[O-])ccc1N1CCOCC1,5.8
8,Cc1cc(C)cc(N2CC(C(=O)Nc3cc(C)on3)CC2=O)c1 (centres undefined),6.7
9,S=C(NCc1ccco1)N1CCC(c2nc3ccccc3o2)CC1,11.3
10,O=C1CC2c3ccccc3C1C1C(=O)N(Cc3ccccc3)C(=O)C21 (centres undefined),> 49.7
11,COC(=O)C1CN(C(=O)COc2ccccc2C)c2ccccc2O1 (centres undefined),48.8
12,Cc1cc(C)c2nc(NC(=O)c3ccc([N+](=O)[O-])o3)sc2c1,< 0.2
13,CC(C(=O)O/N=C(\N)c1ccccn1)c1ccc([N+](=O)[O-])cc1 (centres undefined),> 47.1
14,O=C(CN1CCN(c2ccccc2F)CC1)c1ccc(O)cc1O,10.7
15,COC(=O)CSc1nc(C)cc(N2CCOCC2)n1,> 42.5
16,CC(C)CCNC(=O)C(=O)Nc1ccccc1,2.6
17,CCC1CCC2(CC1)NC(=O)N(CC(=O)N1CCc3ccccc31)C2=O (centres undefined),3.4
18,CC(C)Oc1cccc(C2NC(=O)c3ccccc3O2)c1 (centres undefined),6.7
19,O=C(NN1CCOCC1)c1ccc(Cl)c([N+](=O)[O-])c1,> 42.9
